Measured values as given in PMC9781827, “Isolation and Identification of Anti-Inflammatory Peptide from Goose Blood Hydrolysate to Ameliorate LPS-Mediated Inflammation and Oxidative Stress in RAW264.7 Macrophages” (Molecules, 2022).

Legend:
Format in all cases: cell-based
[1] = tested on: RAW264.7 macrophages; assay: Viability / cytotoxicity of RAW264.7 macrophages; settings: for viability of RAW264.7 macrophages: 3.0 μg/mL LPS, mean ± S.D., repeated three times
Method: The method of RAW264.7 macrophage culture and treatments were based on the study of Li et al.. RAW264.7 macrophages (Lot number: BH0799, Chinese Academy of Sciences, Shanghai, China) were grown in DMEM-F medium (1:1) containing 3.15 g/L glucose, 0.365 g/L l-glutamine, 3.57 g/L HEPES, 10% FBS and 1% antibiotics at 37 °C in an atmosphere with 5% CO2 and 90% relative humidity. […] The optimal concentration of LPS for inducing inflammation in the RAW264.7 macrophage was ensured according to cell viability. Furthermore, RAW264.7 macrophages were cultured with different concentrations of GBP (100 μg/mL, 200 μg/mL and 400 μg/mL) to evaluate the cytotoxicity of GBP as described above. The ability of GBP to protect RAW264.7 macrophages was evaluated. In the LPS + GBP group, the macrophages medium supplemented with 200 μg/mL GBP was incubated for 2 h. Then, the macrophages medium was substituted with a macrophages medium supplemented with 1.0 μg/mL LPS and incubated for 24 h. In the LPS group, standard macrophages medium incubated for 2 h. Then, the standard macrophages medium was substituted with macrophages medium supplemented with 1.0 μg/mL LPS and incubated for 24 h. In the CTRL group, standard macrophages medium incubated for 2 h, Then, the standard macrophages medium was replaced with a new one and incubated for 24 h. Finally, the macrophages medium and macrophages were collected for further analysis.

[2] = tested on: IL-1β; assay: IL-1β level by ELISA in culture medium, model of LPS-mediated RAW264.7 macrophage inflammation; settings: LPS group: LPS (1.0 μg/mL) alone, 24 h; mean ± S.D., n = 3
Method: The anti-inflammatory activity of the peptides was determined according to the methods of a previous study. The anti-inflammatory activity of different fractions was evaluated by measuring the levels of the inflammatory cytokines (TNF-α, IL-1β and IL-6) in a model of LPS-induced macrophage inflammation with ELISA kits (Jiangsu Enzyme marker Biotechnology Co., Ltd., Yancheng, China). […] A 20 mmol/L Tris-HCl (pH 8.0) solution was used as the start buffer and 20 mmol/L Tris-HCl/1 mol/L NaCl (pH 8.0) was used as elution buffer. Elution program: (1) wash with 5 column volumes of starting buffer; (2) elute with 10 column volumes of 50% elution buffer and 50% start buffer; (3) elute with 5 column volumes of 100% elution buffer. The above flow rates were 5 mL/min. The fractions were detected at 280 nm by an ultraviolet detector and collected by an automatic fraction collector.
The method of RAW264.7 macrophage culture and treatments were based on the study of Li et al.. […] Macrophages from passages 5 to 10 were selected to seed on 96-well culture plates at a density of 4 × 10^5 cells/well and cultured with different concentrations of LPS (0.5 μg/mL, 1.0 μg/mL and 2.0 μg/mL) for 24 h. The optimal concentration of LPS for inducing inflammation in the RAW264.7 macrophage was ensured according to cell viability. […] The ability of GBP to protect RAW264.7 macrophages was evaluated. […]

[3] = tested on: ROS; assay: ROS level in LPS-mediated RAW264.7 macrophages (DCFH-DA probe); settings: stimulation with LPS alone; mean ± S.D., n = 3
Method: The culture medium was collected and centrifuged at 3000× g for 10 min. Then, the inflammatory cytokines levels of TNF-α (MB-50051A), IL-1β (MB-50064B) and IL-6 (MB-50054A) in the culture medium were determined with ELISA kits (Jiangsu Enzyme marker Biotechnology Co., Ltd., Yancheng, China). […] (7) Add 50 μL of stop solution to each well, and measure its absorbance value at 450 nm wavelength. The activities of SOD, GSH-Px and the levels of ROS and Nitric oxide (NO) in macrophages were determined with spectrophotometric kits. […] The absorbance value of miscible liquid was measured at 450 nm wavelength by a multifunctional microplate reader; GSH-Px: 0.2 mL of sample was mixed with 0.2 mL GSH-Px (1 mmol/L) and performed at 37 °C for 5 min. […] The absorbance value was measured at 412 nm wavelength by a multifunctional microplate reader; ROS: DCFH-DA probe was added directly to serum-free medium: DCFH-DA was generally diluted with serum-free medium at a final concentration of 10 µM at 1:1000. […] In general, obvious green fluorescence can be observed in positive control cells after 20 min of stimulation. […] It can also be detected according to FITC fluorescence detection conditions. The results were expressed as fluorescence values.

lipopolysaccharide [LPS]
viability of RAW264.7 macrophages ([1]; 24 h, Figure 1A): approximately 51.51 ± 4.29% | viability of RAW264.7 macrophages ([1]; LPS group of Figure 1C (CTRL 100 ± 7.35%)): 51.57 ± 7.07% | LPS concentration resulting in 50% RAW264.7 macrophages death ([1]; 24 h, estimated from viability at 3.0 μg/mL): around 3.0 μg/mL | level of IL-1β [2]: 485.75 ± 50.29 pg/mL | levels of ROS [3]: 61.96 ± 2.27 U/mg prot
